Test results: US11472766B2, “Lipid nanoparticle composition” (Suzhou Abogen Biosciences Co., Ltd., priority 2020, dated 2022)

How the values were obtained:
[1] = test system: human erythropoietin (hEPO) mRNA; assay: Animal study: hEPO expression after tail vein injection of LNPs encapsulating hEPO mRNA (serum ELISA); format: in vivo; conditions: hEPO level, female ICR mice, 0.5 mg/kg, 6 hours post administration; for Expression at 6 h (μg/ml): class symbols, Table 3
Method in brief: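 Female ICR mice (6-8 weeks) received LNPs carrying hEPO mRNA by tail vein injection at 0.5 mg/kg, with MC3 LNPs dosed the same way as positive control. Blood was drawn at set times (e.g., 6 h) and serum separated. hEPO was quantified by ELISA and reported as μg/ml.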

[2] = Encapsulation efficiency of lipid nanoparticles (Quant-it Ribogreen RNA quantification assay); format: physicochemical; conditions: LNP encapsulating hEPO mRNA
Method in brief: (§1)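 Ribogreen fluorescence quantifies encapsulated mRNA and backscatter (173°) DLS sizes the particles. These are microfluidically mixed four-component LNPs in DPBS after dialysis.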

[3] = Apparent pKa of LNP formulations (TNS fluorescence assay); conditions: LNP cationic lipid/DSPC/cholesterol/DMG-PEG 50/10/38.5/1.5 mol %
Procedure: The apparent pKa of each formulation was determined using an assay based on fluorescence of 2-(p-toluidino)-6-napthalene sulfonic acid (TNS). LNP formulations comprising of cationic lipid/DSPC/cholesterol/DMG-PEG (50/10/38.5/1.5 mol %) in PBS were prepared as described above. TNS was prepared as a 300 uM stock solution in distilled water. LNP formulations were diluted to 0.1 mg/ml total lipid in 3 mL of buffered solutions containing 50 mM sodium citrate, 50 mM sodium phosphate, 50 mM sodium borate, and 30 mM sodium chloride where the pH ranged from 3 to 9. An aliquot of the TNS solution was added to give a final concentration of 0.1 mg/ml and following vortex mixing fluorescence intensity was measured at room temperature in a Molecular Devices Spectramax iD3 spectrometer using excitation and mission wavelengths of 325 nm and 435 nm. A sigmoidal best fit analysis was applied to the fluorescence data and the pKa value was measured as the pH giving rise to half-maximal fluorescent intensity.

[4] = Lipid nanoparticle size by dynamic light scattering (Malvern Zetasizer Nano ZS); format: physicochemical; conditions: LNP: cationic lipid/DSPC/cholesterol/PEG-lipid 50:10:38.5:1.5, hEPO mRNA
Method in brief: as §1

Row | Structure (SMILES) | Expression at 6 h (μg/ml) [1] | Encapsulation Efficiency ([2]; Table 3) [%] | Apparant Pka ([3]; Table 3) | polydispersity ([4]; Table 3) | size nm ([4]; Table 3) [nm] | Expression at 6 h ([1]; Table 2) [µg/mL] | Encapsulation Efficiency ([2]; Table 2) [%] | Apparant Pka ([3]; Table 2) | polydispersity ([4]; Table 2) | size nm ([4]; Table 2) [nm]
1 | CCCCCCCCC(CCCCCC)COC(=O)CCCCCN(CCCCCC(=O)OCC(CCCCCC)CCCCCCCC)CCN(CCC)C1CCC(O)CC1 (stereo not drawn) [Compound 56] | A (≥2) | 96.4 | 6.466 | 0.07 | 85.46 |  |  |  |  | 
2 | CCCCCCCCC(CCCCCC)CNC(=O)CCCCCN(CCCCCC(=O)NCC(CCCCCC)CCCCCCCC)CCN(CCO)C1CCCC1 (stereo not drawn) [Compound 111] | B (≥1 and <2) | 89.0 | 6.668 | 0.049 | 92.3 |  |  |  |  | 
3 | CCCCCCCCC(O)CN(CCN(CCCCCC(=O)OCC(CCCCCC)CCCCCCCC)CCCCCC(=O)OCC(CCCCCC)CCCCCCCC)C1CCC1 (stereo not drawn) [Compound 34] | D (<0.1) | 96.1 | 5.29 | 0.095 | 63.32 |  |  |  |  | 
4 | CCCCCCCCCCC(CCCCCC)COC(=O)CCCN(CCCC(=O)OCC(CCCCCC)CCCCCCCCCC)CCN(CCO)C1CCC1 (stereo not drawn) [Compound 41] | C (≥0.1 and <1) | 97.5 | 5.93 | 0.054 | 64.04 |  |  |  |  | 
5 | CCCCCCCCC(CCCCCC)COC(=O)CCCCCCN(CCCCCCC(=O)OCC(CCCCCC)CCCCCCCC)CCN(CCO)C1CCC1 (stereo not drawn) [Compound 37] | A (≥2) | 97.0 | 6.205 | 0.034 | 84.26 |  |  |  |  | 
6 | CCCCCCCCOC(CCCCCN(CCCCCC(=O)NCC(CCCCCC)CCCCCC)CCN(CCO)C1CCC1)OCCCCCCCC [Compound 150] | A (≥2) | 93.5 | 6.918 | 0.06 | 66.33 |  |  |  |  | 
7 | CCCCCCCCCCCOC(=O)CCCCCN(CCCCCC(=O)NCC(CCCCCCCC)CCCCCCCC)CCN(CCO)C1CCCCCC1 [Compound 149] | B (≥1 and <2) | 86.3 | 6.810 | 0.07 | 72.85 |  |  |  |  | 
8 | CCCCCCCCC(CCCCCC)COC(=O)CCCCCN(CCCCCC(=O)OCC(CCCCCC)CCCCCCCC)CCN(CCO)C1COC1 (stereo not drawn) [Compound 88] | D (<0.1) | 97.2 | 7.41 | 0.21 | 66.89 |  |  |  |  | 
9 | CCCCCCCCC(CCCCCC)COC(=O)CCCCCN(CCCCCC(=O)OCC(CCCCCC)CCCCCCCC)CCN(C(=O)CCO)C1CCC1 (stereo not drawn) [Compound 8] |  |  |  |  |  | 0.00 | 96.9 | 5.84 | 0.065 | 54.7
10 | CCCCCCCCC(CCCCCC)CC(=O)NCCCCCN(CCCCCNC(=O)CC(CCCCCC)CCCCCCCC)CCN(CCO)C1CCCCC1 (stereo not drawn) [Compound 115] | A (≥2) | 98.2 | 6.732 | 0.117 | 65.12 |  |  |  |  | 
11 | CCCCCCCCC(CCCCCC)COC(=O)CCCCCN(CCCCCC(=O)OCC(CCCCCC)CCCCCCCC)CCN(CCO)C1CC(O)C1 (stereo not drawn) [Compound 22] | D (<0.1) | 98.3 | 6.884 | 0.081 | 71.2 |  |  |  |  | 
12 | CCCCCCCCC(CCCCCC)CC(=O)COCCCCN(CCCCCOC(=O)CC(CCCCCC)CCCCCCCC)CCN(CCO)C1CCCC1 (stereo not drawn) [Compound 25] | A (≥2) | 96.7 | 6.334 | 0.032 | 74.3 |  |  |  |  | 
13 | CCCCCCCCC(CCCCCC)COC(=O)CCCCCN(CCCCCC(=O)OCC(CCCCCC)CCCCCCCC)CCN(CCO)C1CCOCC1 (stereo not drawn) [Compound 89] | A (≥2) | 94.6 | 6.7 | 0.028 | 84.53 |  |  |  |  | 
14 | CCCCCCCCCCC(CCCCCC)COC(=O)CCCCN(CCCCC(=O)OCC(CCCCCC)CCCCCCCCCC)CCN(CCO)C1CCC1 (stereo not drawn) [Compound 42] | C (≥0.1 and <1) | 96.4 | 6.196 | 0.065 | 65.63 |  |  |  |  | 
15 | CCCCCCCCC(CCCCCC)COC(=O)CCCCCN(CCCCCC(=O)OCC(CCCCCC)CCCCCCCC)CCN(CCCO)C1CCC1 (stereo not drawn) [Compound 28] | A (≥2) | 96.5 | 6.529 | 0.002 | 79.82 |  |  |  |  | 
16 | CCCCCCCCC(CCCCCCCC)CC(=O)NCCCCCN(CCCCCOC(=O)CC(CCCCCCCC)CCCCCCCC)CCN(CCO)C1CCCCCC1 [Compound 145] | A (≥2) | 93.1 | 6.634 | 0.04 | 61.5 |  |  |  |  | 
17 | CCCCCCCCC(CCCCCCCC)CNC(=O)CCCCCN(CCCCCC(=O)OCC(CCCCCCCC)CCCCCCCC)CCN(CCO)C1CCCCCC1 [Compound 139] | A (≥2) | 92.64 | 6.518 | 0.052 | 67.31 |  |  |  |  | 
18 | CCCCCCCCC(CCCCCC)COC(=O)CCCCCN(CCCCCC(=O)OCC(CCCCCC)CCCCCCCC)CCN(CCO)C1CCC1 (stereo not drawn) [Compound 35] | C (≥0.1 and <1) | 94.8 | 5.945 | 0.086 | 60.58 |  |  |  |  | 
19 | CCCCCCCCC(CCCCCC)CNC(=O)CCCCCN(CCCCCC(=O)OCC(CCCCCC)CCCCCCCC)CCN(CCO)C1CC1 (stereo not drawn) [Compound 109] | A (≥2) | 97.6 | 6.633 | 0.06 | 73.52 |  |  |  |  | 
20 | CCCCCCC(CCCCCC)CC(=O)NCCCCCN(CCCCCOC(=O)CC(CCCCCC)CCCCCC)CCN(CCO)C1CCCCCC1 [Compound 142] | A (≥2) | 85.3 | 6.678 | 0.027 | 81.13 |  |  |  |  | 
21 | CCCCCCCCC(CCCCCC)CNC(=O)CCCCCN(CCCCCC(=O)NCC(CCCCCC)CCCCCCCC)CCN(CCO)C1CC1 (stereo not drawn) [Compound 110] | C (≥0.1 and <1) | 90.0 | 6.696 | 0.063 | 91.1 |  |  |  |  | 
22 | CCCCCCCCC(CCCCCC)COC(=O)CCCCCN(CCCCCC(=O)OCC(CCCCCC)CCCCCCCC)CCN(CC(O)CCCC)C1CCC1 (stereo not drawn) [Compound 33] | D (<0.1) | 94.5 | 5.315 | 0.091 | 62.2 |  |  |  |  | 
23 | CCCCCCCCC(CCCCCC)CC(=O)COCCCCN(CCCCCOC(=O)CC(CCCCCC)CCCCCCCC)CCN(CCO)C1CCCCCC1 (stereo not drawn) [Compound 27] | C (≥0.1 and <1) | 96.7 | 6.153 | 0.133 | 58.44 |  |  |  |  | 
24 | CCCCCCCC(CCCCCCC)COC(=O)CCCCCN(CCCCCC(=O)OCC(CCCCCCC)CCCCCCC)CCN(CCC)C1CCC(O)CC1 (stereo not drawn) [Compound 71] | A (≥2) | 93.0 | 6.613 | 0.038 | 91.13 |  |  |  |  | 
